US20260159512A1, “BCAT2 INHIBITORS” (AGIOS PHARMACEUTICALS, INC., priority 2021, published 2026)
Where “and” joins values, the source holds several entries; their conditions need not be identical. Equal entries are not always repeated.

Assays:
Details in all cases: average where tested multiple times
BCAT2 [1] = target: T1, BCAT2 (Homo sapiens, UniProt O15382); assay: BCAT2 in vitro cell inhibition using engineered A549 cells (KMV cell assay, 13C6-KMV by LC-MS/MS); format: cell-based; parameters: The result was an engineered A549 cell line that expressed endogenous BCAT2; endogenous in cells; host or cells: A549 cells with MUT and BCAT1 knocked out by CRISPR/CAS9
T1 sequence (O15382 28-392): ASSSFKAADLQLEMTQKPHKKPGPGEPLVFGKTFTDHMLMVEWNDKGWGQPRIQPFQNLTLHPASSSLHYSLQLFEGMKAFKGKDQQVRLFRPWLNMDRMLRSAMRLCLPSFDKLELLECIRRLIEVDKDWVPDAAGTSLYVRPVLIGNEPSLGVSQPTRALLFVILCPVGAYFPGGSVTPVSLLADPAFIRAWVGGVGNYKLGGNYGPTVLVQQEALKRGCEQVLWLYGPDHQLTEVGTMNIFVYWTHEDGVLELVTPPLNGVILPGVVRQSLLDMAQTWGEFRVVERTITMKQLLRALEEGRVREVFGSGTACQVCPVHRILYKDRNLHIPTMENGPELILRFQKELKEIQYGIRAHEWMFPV

hBCAT1 = target: T2, hBCAT1 (Homo sapiens, UniProt P54687); assay: BCAT1 in vitro enzyme inhibition assay (resazurin/diaphorase-coupled fluorescence); format: biochemical
T2 sequence (P54687 1-386): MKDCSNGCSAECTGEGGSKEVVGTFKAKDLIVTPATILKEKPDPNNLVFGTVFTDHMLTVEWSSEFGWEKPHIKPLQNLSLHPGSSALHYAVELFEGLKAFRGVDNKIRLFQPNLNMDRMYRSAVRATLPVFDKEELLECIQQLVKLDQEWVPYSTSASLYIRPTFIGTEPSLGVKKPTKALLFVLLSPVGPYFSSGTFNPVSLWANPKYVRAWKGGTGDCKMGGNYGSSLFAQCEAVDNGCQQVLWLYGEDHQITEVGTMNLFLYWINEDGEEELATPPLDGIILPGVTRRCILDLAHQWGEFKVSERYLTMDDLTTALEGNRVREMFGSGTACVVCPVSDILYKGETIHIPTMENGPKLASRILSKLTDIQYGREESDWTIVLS
Procedure, shortened: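 Ten-point, 3-fold compound series (top final 100 μM, delivered 1:50 from 50× DMSO stocks) tested against hBCAT1. Inhibition detected via diaphorase-coupled resazurin fluorescence, duplicate wells, with values from repeated runs averaged.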

BCAT2 [2] = target: T1, BCAT2; assay: BCAT2 in vitro enzyme inhibition assay (resazurin/diaphorase-coupled fluorescence); format: biochemical
Procedure, shortened: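 Coupled fluorescence readout: glutamate formed from L-leucine/α-ketoglutarate transamination drives GDH/NAD/diaphorase reduction of resazurin (Ex 540/Em 590). Human BCAT2 was first exposed 1 h at room temperature to compound, top final 100 μM in 3-fold, 10-point series; substrate reaction ran 1 h before SDS quench, in technical duplicate with DMSO max and enzyme-free min controls.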

| IC50 (BCAT2 [1]) [nM] | IC50 (hBCAT1) | IC50 (BCAT2 [2]) [nM] | SMILES |
| --- | --- | --- | --- |
| ≤ 100 | < 500 nM | ≤ 100 | O=C(N[C@H]1CCC[C@@H](n2c(-c3ccccc3F)nc3cnc(-c4nc[nH]n4)cc32)C1)c1ncc(Cl)s1 [Example 83, 5-chloro-N-((1S,3R)-3-(2-(2-fluorophenyl)-6-(1H-1,2,4-triazol-3-yl)-1H-imidazo[4,5-c]pyridin-1-yl)cyclohexyl)thiazole-2-carboxamide] |
| ≤ 100 | < 500 nM | ≤ 100 | COc1ccccc1-c1nc2cnc(-c3nc[nH]n3)cc2n1[C@@H]1CCC[C@H](NC(=O)c2ncc(Cl)s2)C1 [Example 352, 5-chloro-N-((1S,3R)-3-(2-(2-methoxyphenyl)-6-(1H-1,2,4-triazol-3-yl)-1H-imidazo[4,5-c]pyridin-1-yl)cyclohexyl)thiazole-2-carboxamide] |
| 100 to 500 | < 500 nM | ≤ 100 | NC1CC(NC(=O)c2ncc(Cl)s2)CC(n2c(-c3ccccc3F)nc3cnc(-c4nc[nH]n4)cc32)C1 (single isomer, unassigned) [Example 455, N-(3-amino-5-(2-(2-fluorophenyl)-6-(1H-1,2,4-triazol-3-yl)-1H-imidazo[4,5-c]pyridin-1-yl)cyclohexyl)-5-chlorothiazole-2-carboxamide] |
| 100 to 500 | 500 to 1000 nM | ≤ 100 | Cc1coc(-c2cc3c(cn2)nc(CC(C)C)n3[C@@H]2CCC[C@H](NC(=O)c3ncc(Cl)s3)C2)n1 [Example 306, 5-chloro-N-((1S,3R)-3-(2-isobutyl-6-(4-methyloxazol-2-yl)-1H-imidazo[4,5-c]pyridin-1-yl)cyclohexyl)thiazole-2-carboxamide] |
| ≤ 100 | < 500 nM | ≤ 100 | CC(C)Cc1nc2cnc(-c3nc[nH]n3)cc2n1[C@@H]1CCC[C@H](NC(=O)c2ncc(Cl)s2)[C@H]1O [Example 250, 5-chloro-N-((1S,2R,3R)-2-hydroxy-3-(2-isobutyl-6-(1H-1,2,4-triazol-3-yl)-1H-imidazo[4,5-c]pyridin-1-yl)cyclohexyl)thiazole-2-carboxamide] |
| ≤ 100 | < 500 nM | ≤ 100 | Nc1cccc(-c2cc3c(cn2)nc(-c2ccccc2F)n3[C@@H]2CCC[C@H](NC(=O)c3ncc(Cl)s3)C2)n1 [Example 105, N-((1S,3R)-3-(6-(6-aminopyridin-2-yl)-2-(2-fluorophenyl)-1H-imidazo[4,5-c]pyridin-1-yl)cyclohexyl)-5-chlorothiazole-2-carboxamide] |
| 100 to 500 | 1000 to 5000 nM | ≤ 100 | CC(C)Cc1nc2cnc(-c3nc4ccccc4o3)cc2n1[C@@H]1CCC[C@H](NC(=O)c2ncc(Cl)s2)C1 [Example 324, N-((1S,3R)-3-(6-(benzo[d]oxazol-2-yl)-2-isobutyl-1H-imidazo[4,5-c]pyridin-1-yl)cyclohexyl)-5-chlorothiazole-2-carboxamide] |
| > 1000 | 1000 to 5000 nM | 100 to 500 | CC(C)Cc1nc2cnc(-c3cccc(C#N)n3)cc2n1[C@@H]1CCC[C@H](NC(=O)c2ncc(Cl)s2)[C@H]1O [Example 392, 5-chloro-N-((1S,2R,3R)-3-(6-(6-cyanopyridin-2-yl)-2-isobutyl-1H-imidazo[4,5-c]pyridin-1-yl)-2-hydroxycyclohexyl)thiazole-2-carboxamide] |
| ≤ 100 | < 500 nM | ≤ 100 | Cc1nc(-c2cc3c(cn2)nc(CC(C)C)n3[C@@H]2CCC[C@H](NC(=O)c3ncc(Cl)s3)C2)n[nH]1 [Example 165, 5-chloro-N-((1S,3R)-3-(2-isobutyl-6-(5-methyl-1H-1,2,4-triazol-3-yl)-1H-imidazo[4,5-c]pyridin-1-yl)cyclohexyl)thiazole-2-carboxamide] |
| 500 to 1000 | 1000 to 5000 nM | ≤ 100 | O=C(N[C@H]1CCC[C@@H](n2c(-c3ncccc3F)nc3cnc(-n4ccnn4)cc32)C1)c1ncc(Br)s1 [Example 35, 5-bromo-N-((1S,3R)-3-(2-(3-fluoropyridin-2-yl)-6-(1H-1,2,3-triazol-1-yl)-1H-imidazo[4,5-c]pyridin-1-yl)cyclohexyl)thiazole-2-carboxamide] |
| 100 to 500 | > 5000 nM | 100 to 500 | O=C(NC1COCC(n2c(-c3ccccc3F)nc3cnc(-n4nccn4)cc32)C1)c1ncc(C(F)F)s1 (single isomer, unassigned) [Example 143, 5-(difluoromethyl)-N-(5-(2-(2-fluorophenyl)-6-(2H-1,2,3-triazol-2-yl)-1H-imidazo[4,5-c]pyridin-1-yl)tetrahydro-2H-pyran-3-yl)thiazole-2-carboxamide] |
| 500 to 1000 | < 500 nM | 100 to 500 | O=C(N[C@@H]1C[C@@H](O)C[C@H](n2c(-c3ccccc3F)nc3cnc(-n4nccn4)cc32)C1)c1ncc(C(F)F)s1 (single isomer, unassigned) [Example 107] |
| ≤ 100 | < 500 nM | ≤ 100 | CO[C@H]1C[C@H](NC(=O)c2ccc(Cl)s2)C[C@H](n2c(CC(C)C)nc3cnc(-c4ncccn4)cc32)C1 (single isomer, unassigned) [Example 437] |
| > 1000 | < 500 nM | ≤ 100 | O=C(N[C@@H]1C[C@H](n2c(-c3ccccc3F)nc3cnc(-c4nc[nH]n4)cc32)CS(=O)(=O)C1)c1ccc(Cl)s1 [Example 456, 5-chloro-N-((3R,5S)-5-(2-(2-fluorophenyl)-6-(1H-1,2,4-triazol-3-yl)-1H-imidazo[4,5-c]pyridin-1-yl)-1,1-dioxidotetrahydro-2H-thiopyran-3-yl)thiophene-2-carboxamide] |
| ≤ 100 | < 500 nM | ≤ 100 | CC(C)Cc1nc2cnc(-c3nc[nH]n3)cc2n1[C@@H]1CCC[C@H](NC(=O)c2ccc(Cl)s2)[C@H]1O [Example 401, 5-chloro-N-((1S,2R,3R)-2-hydroxy-3-(2-isobutyl-6-(1H-1,2,4-triazol-3-yl)-1H-imidazo[4,5-c]pyridin-1-yl)cyclohexyl)thiophene-2-carboxamide] |
| ≤ 100 | < 500 nM | ≤ 100 | O=C(NC1CC(O)CC(n2c(-c3ccccc3F)nc3cnc(-n4nccn4)cc32)C1)c1ncc(Cl)s1 (stereo not drawn) [Example 109, 5-chloro-N-(3-(2-(2-fluorophenyl)-6-(2H-1,2,3-triazol-2-yl)-1H-imidazo[4,5-c]pyridin-1-yl)-5-hydroxycyclohexyl)thiazole-2-carboxamide] |
| > 1000 | 1000 to 5000 nM and > 5000 nM | ≤ 100 | CC(=O)N1CC(NC(=O)c2ncc(C(F)F)s2)CC(n2c(-c3ncccc3F)nc3cnc(-n4ccnn4)cc32)C1 (stereo not drawn) [Example 120, N-(1-acetyl-5-(2-(3-fluoropyridin-2-yl)-6-(1H-1,2,3-triazol-1-yl)-1H-imidazo[4,5-c]pyridin-1-yl)piperidin-3-yl)-5-(difluoromethyl)thiazole-2-carboxamide] |
| ≤ 100 | < 500 nM | ≤ 100 | CC(C)Cc1nc2cnc(-c3ncccn3)cc2n1[C@@H]1CCC[C@H](NC(=O)c2ncc(Cl)s2)C1 [Example 331, 5-chloro-N-((1S,3R)-3-(2-isobutyl-6-(pyrimidin-2-yl)-1H-imidazo[4,5-c]pyridin-1-yl)cyclohexyl)thiazole-2-carboxamide] |
| ≤ 100 | < 500 nM | ≤ 100 | O=C(NC1CCCC(n2c(-c3ccccc3F)nc3cnc(-n4nccn4)cc32)C1O)c1ncc(Cl)s1 (stereo not drawn) [Example 112, 5-chloro-N-(3-(2-(2-fluorophenyl)-6-(2H-1,2,3-triazol-2-yl)-1H-imidazo[4,5-c]pyridin-1-yl)-2-hydroxycyclohexyl)thiazole-2-carboxamide] |
| ≤ 100 | < 500 nM | ≤ 100 | O=C(NC1CC(O)CC(n2c(-c3ccccc3F)nc3cnc(-c4nnc[nH]4)cc32)C1)c1ncc(Cl)s1 (stereo not drawn) [Example 115, 5-chloro-N-(3-(2-(2-fluorophenyl)-6-(4H-1,2,4-triazol-3-yl)-1H-imidazo[4,5-c]pyridin-1-yl)-5-hydroxycyclohexyl)thiazole-2-carboxamide] |
